Assays:
HIV-1 capsid protein = molecular target: T1, HIV-1 capsid protein (Human immunodeficiency virus type 1 group M subtype B, UniProt P12493); assay: In vitro polymerization of HIV-1 capsid protein (His-CA/GST-CA, Eu cryptate/XL665 energy transfer); format: biochemical, HIV-1 NL4-3
T1 construct: made in house; host or cells: E. coli (pET30 vector)
From the text: • 1. MAb Anti GST-Eu cryptate (Cisbio) • 2. MAb Anti 6HIS-XL665 (Cisbio) • 3. His tag HIV-1 capsid protein (hereinafter referred to as His-CA) • 4. GST tag HIV-1 capsid protein (hereinafter referred to as GST-CA) • 5. 384-well unbound surface microplate, white (Corning) • 6. Microplate reader (BMG)
The HIV-1 capsid proteins aggregate spontaneously in high-salt solutions. Capsid protein sequences derived from HIV-1 NL4-3 strains (GeneBank AF324493.2) were separately tagged with 6His tag and GST tag sequences at the C-terminus, cloned into pET30 vectors, and expressed and separately tagged for expression in E. coli system and purified. His-CA and GST-CA were mixed at high-salt concentrations, and the level of polymerization of capsid proteins was detected using GST antibody labeled with Eu3+-Cryptate (energy donor) and His antibody labeled with XL665 (energy acceptor). Since the excitation spectrum of Eu3+-Cryptate overlapped with the excitation spectrum of XL665, when the capsid proteins with these two tags formed a poly complex, the energy donor and the energy acceptor could be drawn to a sufficiently close distance, the energy donor released part of the captured energy under the excitation of an external light source (such as a xenon lamp or a laser), with the emission wavelength being 620 nM, part of the resonance was transferred to the energy acceptor to excite the energy acceptor, with the emission wavelength being 665 nM, and an optical signal was generated, the signal intensity of which was in direct proportion to the degree of polymerization of the tag proteins.
His-CA was diluted to 2 μM in a clean tube with protein diluent (50 mM Tris-HCl, pH 8.0, 50 mM NaCl, 0.4 mM MgCl2, 0.05% Triton X-100, 2% glycerol) while MAb Anti 6HIS-XL665 at a final concentration of 260 nM was added; GST-CA was diluted to 20 nM with protein diluent in another clean tube while MAb Anti GST-Eu cryptate at a final concentration of 3.33 nM was added and incubated on ice for half an hour. Compounds were first formulated into a concentration of 20 mM with DMSO, then diluted to a first concentration of 2 mM with DMSO and serially 5-fold diluted to the 8th concentration. Control wells were set and added with DMSO, and serially-diluted compounds were then 20-fold diluted with protein diluent to 10-fold working concentrations. Preparation of capsid protein polymerization liquid at 2-fold concentration: 50 mM Tris-HCl, pH 8.0, 1 M NaCl, 800 mM KF; to a pre-cooled white round-bottomed 384-well plate were added 4 uL of His-CA-His antibody mixture, 4 uL of GST-CA-GST antibody mixture, 2 uL of the compounds at 10-fold concentration and 10 uL of capsid protein polymerization reaction liquid at 2-fold concentration, the plate was sealed with a light-shielding sealing plate membrane after uniformly mixing, and the reaction plate was placed in a 37° C. incubator for incubation for 2 h. After incubation, the samples were excited with an excitation light at 337 nM, and signal values at 620 nM and 665 nM were collected for detection, wherein Ratio values=(665 nM/620 nM signal)×10000 was calculated according to the signal values. IC50 values for compounds were calculated using Graphpad Prism software based on each concentration of the compounds and the corresponding Ratio values.

[1] = Thermodynamic stability test of atropisomerism (LC-MS); format: physicochemical
Experimental: Agilent 1200 DAD model LC-MS; column: waters sunfire C18, 4.6×75 mm, 3.5 μm; mobile phase: water (0.1% trifluoroacetic acid):acetonitrile (0.1% trifluoroacetic acid).
The compounds of Examples 1-1a, 1-1b were atropisomers of each other and had different retention times in the LC-MS spectra, and the tautomerism of the atropisomers could be detected by LC-MS.
Compound 1-1a (1.5 mg) was dissolved in acetonitrile (1.0 mL), and the reaction solution was heated at 40° C. for 1.0 h, and the change in purity of compound 1-1a was detected by LC-MS. Compound 1-1a (1.5 mg) was dissolved in dimethyl sulfoxide (1.0 mL), and the reaction solution was heated at 120° C. for 3.0 h, and the change in purity of compound 1-1a was detected by LC-MS.
The same procedure was used to test the change in purity of compound 1-1b at 40° C. and 120° C.
The compounds of Examples 5-1, 5-2 were atropisomers of each other and had different retention times in the LC-MS spectra, and the tautomerism of the atropisomers could be detected by LC-MS.
Compound 5-1 (1.0 mg) was dissolved in DMSO (1.0 mL), and the reaction solution was heated at 37° C. and 120° C. for 3.0 h, respectively, and the change in purity of compound 5-1 was detected by LC-MS.

SMILES: CC(C)(C#Cc1nc([C@H](Cc2cc(F)cc(F)c2)NC(=O)Cn2nc(C(F)(F)F)c3c2C(F)(F)[C@@H]2C[C@H]32)c(-c2ccc(Cl)c3c(NS(C)(=O)=O)nn(CC(F)(F)F)c23)c2c1CCC2)S(C)(=O)=O (atropisomer, axis not shown; (aR)) [Example 1-1, N—((S)-1-((R)-4-(4-chloro-3-(methanesulfonamide)-1-(2,2,2-trifluoroethyl)-1H-indazol-7-yl)-1-(3-methyl-3-(methylsulfonyl)but-1-yn-1-yl)-6,7-dihydro-5H-cyclopenta[c]pyridin-3-yl)-2-(3,5-difluorophenyl)ethyl)-2-((3bS,4aR)-5,5-difluoro-3-(trifluoromethyl)-3b,4,4a,5-tetrahydro-1H-cyclopropa[3,4]cyclopenta[1,2-c]pyrazol-1-yl)acetamide]
- IC50 (HIV-1 capsid protein): 9 nM
- Imax (HIV-1 capsid protein; 37° C., 2 h incubation): 100%
- atropisomer stability (change in purity by LC-MS) ([1]; heated at 40° C. for 1.0 h in acetonitrile): stable single-configuration compounds
- atropisomer stability (change in purity by LC-MS) ([1]; heated at 120° C. for 3.0 h in dimethyl sulfoxide): stable single-configuration compounds

Reference: patent US12428396B2, “Fused pyridine ring derivative, preparation method therefor, and pharmaceutical use thereof” (priority 2019, dated 2025)
